Series [1] has as its system platelets. Put plainly: Collagen-induced platelet activation, whole blood flow cytometry (P-Selectin, PAC-1). The following applies: for concentration-dependent effect on collagen-induced platelet activation: 50, 100 or 200 μM. It counts as cell-based, human. On the procedure:
Peripheral blood was drawn from healthy, nonsmoking adult volunteers (IRB-approved written informed consent) who had not received any platelet inhibitory drugs in the preceding 2 weeks. After discarding the first 2 mL, blood was drawn into a 3.2% sodium citrate Vacutainer® (Becton Dickinson, Franklin Lakes. N.J., USA).
Flow cytometric analysis may be used to evaluate platelet function, and/or the assessment of platelet activation. Michelson, A. D., “Evaluation of platelet function by flow cytometry” Pathophysiol. Haemost. Thromb. 35:67-82 (2006). In the absence of an added exogenous platelet agonist, whole blood flow cytometry can determine the activation state of circulating platelets, as judged by the binding of an activation-dependent monoclonal antibody. In addition to this assessment of platelet function in vivo, inclusion of an exogenous agonist in the assay enables analysis of the reactivity of circulating platelets in vitro. In the latter application, whole blood flow cytometry is a physiological assay of platelet function in that an agonist results in a specific functional response by the platelets: a change in the surface expression of a physiological receptor (or other antigen or bound ligand), as determined by a change in the binding of a monoclonal antibody.
Markers of platelet activation include activation-dependent changes in the glycoprotein IIb/IIIa complex and exposure of granule membrane proteins. The platelet glycoprotein IIb/IIIa complex is believed involved with biochemical events leading to activation, and may express an activation dependent epitope recognized by monoclonal antibody PAC-1. Shattil et al., “Changes in the platelet membrane glycoprotein IIb/IIIa complex during platelet activation” J. Biol. Chem. 260:11107-11114 (1985). P-Selectin (GMP-140, PADGEM, CD-62P) is now known to be a component of the alpha-granule membrane and is therefore exposed on the surface of the platelet upon activation, due to the fusing of the vesicle with the outer membrane. These two markers of platelet activation were used to study the effect of peptide on collagen-induced platelet activation using whole blood flow cytometry.
The final concentration of a peptide used in incubation (i.e., for example, the GPVI CP) was 100 μM. The following antibodies (and appropriately matched isotype control antibodies) were used for flow cytometry analysis: fluorescein isothiocyanate (FITC)-conjugated PAC-1 monoclonal antibody which recognizes the activated conformation of glycoprotein (GP) IIb/IIIa; phycoerythrin (PE)-conjugated anti-CD62P monoclonal antibody directed against P-Selectin; and PECy7-conjugated anti-CD41 monoclonal antibody which recognizes the α-subunit of the CD41/CD61 complex (GPIIb-IIIa) (BD-Pharmingen, San-Diego, Calif., USA; and/or DAKO, Carpinteria, Calif., USA).
Prior to flow cytometric experiments, PE-conjugated anti-CD62P and anti-CD41 antibodies were mixed at a ratio of 1:2.5 (volume/volume) and diluted at a ratio of 1:9 (volume/volume) with 10 mmol/L HEPES, 0.15 mol/L NaCl, pH 7.4, containing 1% bovine serum albumin (BSA) and 15 mmol/L sodium azide. Collagen was purchased from Chronolog Corp (Havertown, Pa., USA). The stock 1 mg/mL collagen solution was diluted at a ratio of 1:10 (volume/volume) with 10 mmol/L HEPES, 0.15 mol/L NaCl, pH 7.4. Stock solutions of GPVI core peptide in DMSO (or pure DMSO as a “vehicle” control) were diluted at a ratio of 1:10 (volume/volume) with 10 mmol/L HEPES, 0.15 mol/L NaCl, pH 7.4, immediately before the addition of blood samples.
Flow cytometric analysis: aliquots of citrated whole blood were incubated at 37° C. for 60 min with vehicle (DMSO; in a final concentrations of 0.063, 0.125 or 0.250%) or a preliminarily diluted GPVI core peptide in a final concentration of 100 μM. Then, the aliquoted samples were stimulated with 20 μg/mL collagen for 5 minutes at 37° C. in the presence of monoclonal antibody FITC-PAC-1. […]
(A flow cytometer gives signals particle by particle.)

Series [2] in a line: Solubility of peptides in aqueous solutions and solvents. Conditions: solubility improved by ethanol, DMSO, DMF, TFA. It counts as physicochemical. On the procedure:
(§1) The CP and CP-A peptides were noted to be hydrophobic and insoluble in aqueous solutions. A variety of solvents and carriers were tested to improve their solubility. Solvents and/or carriers that improve solubility of CP and CP-A included, but were not limited to, ethanol, dimethylsulphoxide (DMSO), dimethyl formamide (DMF), and trifluoracetic acid (TFA). When using DMSO as a solvent, the final concentration used in the platelet function experiments ranged from 0.063%-0.250%. DMSO concentrations greater than 1% were observed toxic to cells. Stock solutions of CP and CP-A were prepared in DMSO and used at a […] dilution.

Series [3] has as its system cells. Put plainly: Toxicity of DMSO to cells. It counts as cell-based. How it is done:
as §1

Turning to “H-GNLVAICLGAV-OH [CP-A, NH2-Gly-Asn-Leu-Val-Ala-Ile-Cys-Leu-Gly-Ala-Val-OH, reference compound]”, in series [1] (100 μM peptide, 20 μg/mL collagen), the “expression of the platelet activation markers as compared to vehicle control” value was “did not lead to any significant differences”. In addition, the “collagen-mediated platelet activation, percentage of P-Selectin-positive platelets” value in series [1] (100 μM, FIG. 8A) was “absence of effect”. The “collagen-mediated platelet activation, P-Selectin mean fluorescence surface expression intensity” value in series [1] (100 μM, FIG. 8B) is recorded as “absence of effect”. Also, the “collagen-mediated platelet activation, PAC-1 mean fluorescence surface expression intensity” value in series [1] (100 μM, FIG. 8C) was “absence of effect”. Besides, the “solubility in aqueous solutions” value in series [2] was “insoluble”.
Regarding “H-GNLVRICLGAV-OH [Peptide 2, NH2-Gly-Asn-Leu-Val-Arg-Ile-Cys-Leu-Gly-Ala-Val-OH]”, in series [1] (100 μM peptide, whole blood preincubated 60 min 37° C., 20 μg/mL collagen, % P-Selectin-positive platelets, P-Selectin and PAC-1 MFI), the “reduction in the expression of the platelet activation markers compared to vehicle control” value is 32%-59%. For the same compound, the “concentration-dependent effect on collagen-induced platelet activation” value in series [1] (% P-Selectin-positive platelets, P-Selectin and PAC-1 MFI, listed as GPVI core peptide) was “inhibited platelet activation in a concentration-dependent manner”; in series [1] (% P-Selectin-positive platelets, P-Selectin and PAC-1 MFI, listed as GPVI-CP), “concentration-dependent effect”. For the same compound, the “inhibition of platelet activation” value in series [1] (Examples 4 and 5) is given as 30-60%. Moreover, the “solubility in aqueous solutions” value in series [2] is on record as “insoluble”.
For the compound `C[S+](C)[O-]` [DMSO, dimethylsulphoxide], in series [3], the “DMSO concentration observed toxic to cells” value is recorded as “greater than 1%”.

The values above are taken from US8614188B2, “Inhibiting collagen-induced platelet aggregation and activation with peptide variants” (University of Massachusetts, priority 2006, dated 2013).
